Reference: the supplement of paper PMC10307832

How the values were obtained:
Assay in all cases: relative viability (nuclei count vs DMSO), 5 days (fraction); higher = more cells survive
Vemurafenib + Luminespib = compound: CCCS(=O)(=O)Nc1ccc(F)c(C(=O)c2c[nH]c3ncc(-c4ccc(Cl)cc4)cc23)c1F [Vemurafenib] + CCNC(=O)c1noc(-c2cc(C(C)C)c(O)cc2O)c1-c1ccc(CN2CCOCC2)cc1 [Luminespib] (partner 0.01 µM)
How it was run: (§1)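 Each reported value is a median over duplicate plates. It expresses relative viability: treated-well nuclei count divided by vehicle-well nuclei count. Lung cancer cell lines in 1536-well plates were dosed by pin tool a day after seeding, alone with one drug or with a fixed anchor-drug dose plus five library-drug doses (not always all listed) in √10 steps, and nuclei were counted after 5 days.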

OSI-027 + Pemetrexed = compound: COc1cccc2cc(-c3nc([C@H]4CC[C@H](C(=O)O)CC4)n4ncnc(N)c34)[nH]c12 [OSI-027] + Nc1nc2[nH]cc(CCc3ccc(C(=O)N[C@@H](CCC(=O)O)C(=O)O)cc3)c2c(=O)[nH]1 [Pemetrexed] (partner 0.2 µM)
How it was run: as §1

Alpelisib + Foretinib = compound: Cc1nc(NC(=O)N2CCC[C@H]2C(N)=O)sc1-c1ccnc(C(C)(C)C(F)(F)F)c1 [Alpelisib] + COc1cc2c(Oc3ccc(NC(=O)C4(C(=O)Nc5ccc(F)cc5)CC4)cc3F)ccnc2cc1OCCCN1CCOCC1 [Foretinib] (partner 0.25 µM)
How it was run: as §1

Alpelisib + Tozasertib = compound: Cc1nc(NC(=O)N2CCC[C@H]2C(N)=O)sc1-c1ccnc(C(C)(C)C(F)(F)F)c1 [Alpelisib] + Cc1cc(Nc2cc(N3CCN(C)CC3)nc(Sc3ccc(NC(=O)C4CC4)cc3)n2)n[nH]1 [Tozasertib] (partner 0.1 µM)
How it was run: as §1

Row | Cell Line | relative viability (Vemurafenib + Luminespib; first compound 0.03162 µM) | relative viability (Vemurafenib + Luminespib; first compound 0.1 µM) | relative viability (Vemurafenib + Luminespib; first compound 0.3162 µM) | relative viability (Vemurafenib + Luminespib; first compound 1 µM) | relative viability (OSI-027 + Pemetrexed; first compound 0.01 µM) | relative viability (OSI-027 + Pemetrexed; first compound 0.03162 µM) | relative viability (OSI-027 + Pemetrexed; first compound 0.1 µM) | relative viability (OSI-027 + Pemetrexed; first compound 0.3162 µM) | relative viability (OSI-027 + Pemetrexed; first compound 1 µM) | relative viability (Alpelisib + Foretinib; first compound 0.04 µM) | relative viability (Alpelisib + Foretinib; first compound 0.1265 µM) | relative viability (Alpelisib + Foretinib; first compound 0.4 µM) | relative viability (Alpelisib + Foretinib; first compound 1.265 µM) | relative viability (Alpelisib + Foretinib; first compound 4 µM) | relative viability (Alpelisib + Tozasertib; first compound 0.04 µM) | relative viability (Alpelisib + Tozasertib; first compound 0.1265 µM) | relative viability (Alpelisib + Tozasertib; first compound 0.4 µM) | relative viability (Alpelisib + Tozasertib; first compound 1.265 µM) | relative viability (Alpelisib + Tozasertib; first compound 4 µM)
1 | NCI-H1915 | 0.698 | 0.727 | 0.795 | 0.636 | 0.546 | 0.516 | 0.47 | 0.449 | 0.536 | 1.12 | 1.1 | 1.15 | 1.03 | 1.09 | 0.421 | 0.381 | 0.491 | 0.387 | 0.392
2 | NCI-H1944 | 0.665 | 0.601 | 0.736 | 0.663 | 0.657 | 0.691 | 0.77 | 0.59 | 0.519 | 0.786 | 0.96 | 0.881 | 0.581 | 0.43 | 0.251 | 0.226 | 0.267 | 0.218 | 0.171
3 | NCI-H1975 | 0.295 | 0.219 |  | 0.287 | 0.336 | 0.275 | 0.292 | 0.303 | 0.259 | 0.915 | 0.872 | 0.883 | 0.691 | 0.57 | 0.726 | 0.655 | 0.755 | 0.542 | 0.29
4 | NCI-H1993 | 0.465 |  | 0.773 | 0.86 | 0.533 | 0.41 | 0.522 | 0.465 | 0.45 | 0.737 | 0.697 | 0.771 | 0.544 | 0.55 | 0.621 | 0.505 | 0.542 | 0.511 | 0.515
5 | NCI-H2009 | 0.93 | 0.912 | 0.861 | 0.921 | 1.15 | 1.05 | 1.04 | 0.998 | 0.687 | 1.23 | 1.2 | 1.25 | 1.1 | 1.1 | 0.729 | 0.708 | 0.768 | 0.696 | 0.752
6 | NCI-H2023 | 0.731 | 0.628 | 0.827 | 0.766 | 0.254 | 0.242 | 0.201 | 0.173 | 0.121 | 0.82 | 0.844 | 0.667 | 0.605 | 0.527 | 0.36 | 0.35 | 0.348 | 0.215 | 0.166
7 | NCI-H2085 | 0.451 | 0.425 | 0.423 | 0.492 | 0.776 | 0.879 | 0.797 | 0.841 | 0.795 | 0.93 | 0.845 | 1.05 | 1.07 | 0.833 | 0.825 | 0.718 | 0.907 | 0.762 | 0.746
8 | NCI-H2087 | 0.166 | 0.185 |  | 0.162 | 0.696 | 0.674 | 0.694 | 0.533 | 0.338 | 0.903 | 1.07 | 1.31 | 0.814 | 0.614 | 0.256 | 0.294 | 0.305 | 0.218 | 0.167
9 | NCI-H2126 | 0.847 | 0.905 |  | 0.972 | 0.677 | 0.676 | 0.663 | 0.688 | 0.512 | 1.05 | 1.01 | 1.04 | 1.07 | 0.904 | 0.879 | 0.826 | 0.809 | 0.627 | 0.584
10 | NCI-H2170 | 0.58 | 0.486 | 0.559 | 0.545 | 0.26 | 0.263 | 0.289 | 0.325 | 0.305 | 0.978 | 0.914 | 1.12 | 0.922 | 0.622 | 0.637 | 0.727 | 0.771 | 0.625 | 0.298
11 | NCI-H2228 | 0.148 | 0.161 | 0.19 | 0.172 | 0.43 | 0.348 | 0.322 | 0.327 | 0.208 | 0.82 | 0.927 | 0.701 | 0.613 | 0.404 | 0.224 | 0.173 | 0.231 | 0.204 | 0.139
12 | NCI-H2342 | 0.609 | 0.622 | 0.792 | 0.701 | 0.755 | 0.818 | 0.752 | 0.697 | 0.5 | 1.01 | 1.08 | 1.07 | 0.767 | 0.753 | 0.419 | 0.473 | 0.389 | 0.401 | 0.367
13 | NCI-H2347 | 0.626 | 0.164 | 0.552 | 0.71 | 0.438 | 0.439 | 0.484 | 0.404 | 0.427 | 0.777 | 0.98 | 0.88 | 0.647 | 0.701 | 0.649 | 0.582 | 0.682 | 0.39 | 0.361
14 | NCI-H2405 | 0.667 | 0.625 |  | 0.576 | 0.854 | 1.01 | 0.922 | 0.85 | 0.448 | 1.1 | 1 | 1.1 | 0.849 | 0.711 | 0.725 | 0.68 | 0.825 | 0.682 | 0.625
15 | NCI-H3122 | 0.138 | 0.123 | 0.0825 | 0.101 | 0.207 | 0.198 | 0.19 | 0.207 | 0.243 | 1.02 | 0.884 | 0.987 | 0.867 | 0.821 | 0.334 | 0.387 | 0.35 | 0.255 | 0.263
16 | PC-3 [JPC-3] | 0.671 |  | 0.724 | 0.782 | 0.464 | 1.1 | 0.775 | 0.84 | 0.785 | 1.08 | 1 | 1.07 | 0.987 | 0.971 | 0.898 | 0.873 | 0.968 | 0.84 | 0.806
17 | PC-14 | 0.234 |  | 0.18 | 0.148 | 0.136 | 0.149 | 0.149 | 0.139 | 0.191 | 0.914 | 1.01 | 0.977 | 0.807 | 0.832 | 0.588 | 0.612 | 0.655 | 0.44 | 0.543
